The supplement of paper PMC10307832

What was measured:
Assay in all cases: relative viability (nuclei count vs DMSO), 5 days (fraction); higher = more cells survive
[1] = compound: CCC1=CN=CN=C1N2CCN(CC2)CC3=NC4=C(N3)C=C(C=C4)C(F)(F)F + CC(C)C[C@H](NC(=O)[C@H](Cc1ccccc1)NC(=O)c1cnccn1)B(O)O [Bortezomib] (partner 0.002 µM)
Method in brief: (§1)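 Lung cancer cell lines in 1536-well plates were dosed by pin tool the day after seeding, either with one drug alone or with a fixed anchor-drug dose plus five library-drug doses (not always all listed) in √10 steps. After 5 days, cells were fixed and their nuclei stained in one step (final 0.05% Triton X-100, 1% formaldehyde, 1 ug/ml Hoechst), then counted on 4× images. Relative viability is the nuclei count in treated wells divided by that in vehicle wells. Values are medians of duplicate plates.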

[2] = compound: CCn1c(-c2nonc2N)nc2cnc(Oc3cccc(NC(=O)c4ccc(OCCN5CCOCC5)cc4)c3)cc21 + Nc1ncn([C@H]2C[C@H](O)[C@@H](CO)O2)c(=O)n1 [Decitabine] (partner 2 µM)
Method in brief: as §1

[3] = compound: CCC1=CN=CN=C1N2CCN(CC2)CC3=NC4=C(N3)C=C(C=C4)C(F)(F)F + C[C@@H](Oc1cc(-c2cnn(C3CCNCC3)c2)cnc1N)c1c(Cl)ccc(F)c1Cl [Crizotinib] (partner 1 µM)
Method in brief: as §1

[4] = compound: N=C1NC(=O)/C(=C/c2ccc(O)cc2)S1 [Mirin] + CCNC(=O)c1noc(-c2cc(C(C)C)c(O)cc2O)c1-c1ccc(CN2CCOCC2)cc1 [Luminespib] (partner 0.01 µM)
Method in brief: as §1

Cell Line | relative viability ([1]; first compound 0.04 µM) | relative viability ([1]; first compound 0.1265 µM) | relative viability ([1]; first compound 0.4 µM) | relative viability ([1]; first compound 1.265 µM) | relative viability ([1]; first compound 4 µM) | relative viability ([2]; first compound 0.04 µM) | relative viability ([2]; first compound 0.1265 µM) | relative viability ([2]; first compound 0.4 µM) | relative viability ([2]; first compound 1.265 µM) | relative viability ([2]; first compound 4 µM) | relative viability ([3]; first compound 0.04 µM) | relative viability ([3]; first compound 0.1265 µM) | relative viability ([3]; first compound 0.4 µM) | relative viability ([3]; first compound 1.265 µM) | relative viability ([3]; first compound 4 µM) | relative viability ([4]; first compound 0.25 µM) | relative viability ([4]; first compound 0.7906 µM) | relative viability ([4]; first compound 2.5 µM) | relative viability ([4]; first compound 7.906 µM) | relative viability ([4]; first compound 25 µM)
HOP-62 | 0.869 | 0.819 | 0.648 | 0.677 | 0.947 | 0.226 | 0.215 | 0.23 | 0.211 | 0.202 | 0.777 | 1.09 | 0.931 | 1.06 | 0.896 | 0.956 | 0.987 | 0.923 | 1.05 | 1.03
NCI-H322M | 1.37 | 1.17 | 1.2 | 1.3 | 1.39 | 0.585 | 0.63 | 0.824 | 0.767 | 0.648 | 0.956 | 0.868 | 0.918 | 0.896 | 1.37 | 0.924 | 0.745 | 0.913 | 1.05 | 0.583
NCI-H650 | 0.68 | 0.797 | 0.672 | 0.841 | 0.959 | 0.288 | 0.318 | 0.301 | 0.237 | 0.32 | 0.741 | 0.724 | 0.765 | 0.757 | 1.1 | 0.741 | 0.7 | 0.857 | – | 0.811
NCI-H661 | 0.845 | 0.809 | 0.696 | – | 0.782 | 0.498 | 0.559 | 0.406 | 0.448 | 0.33 | 0.996 | 0.943 | 0.964 | 0.951 | 1.1 | 0.929 | 1.03 | 0.945 | 0.978 | 0.97
EKVX | 0.994 | 0.945 | 0.983 | 0.952 | 1.13 | 0.397 | 0.381 | 0.331 | 0.35 | 0.34 | 1.22 | 0.728 | 0.915 | 0.873 | 1.07 | 0.868 | 0.754 | 0.907 | 0.74 | 0.886
NCI-H520 | 0.699 | 0.48 | 0.642 | 0.534 | 0.472 | 0.611 | 0.524 | 0.468 | 0.347 | 0.37 | 0.73 | 0.784 | 0.837 | 0.796 | 1.12 | 0.234 | 0.241 | 0.225 | 0.235 | 0.211
LCLC-97TM1 | – | 0.516 | 0.598 | 0.668 | 0.942 | 0.258 | 0.235 | – | 0.232 | 0.258 | 0.389 | 0.354 | 0.387 | 0.413 | 0.502 | 0.672 | 0.646 | 0.679 | 0.63 | 0.495
COR-L23 | 0.988 | 0.91 | 0.964 | 0.956 | 0.957 | 0.469 | 0.401 | 0.215 | 0.186 | 0.166 | 0.58 | 0.621 | 0.66 | 0.694 | 0.975 | 0.763 | 0.726 | 0.609 | 0.626 | 0.499
NCI-H1355 | 1.21 | 1.17 | 1.22 | 1.07 | 1.38 | 0.31 | 0.36 | 0.358 | 0.364 | 0.307 | 1.07 | 1.01 | 1 | 1.14 | 1.15 | 0.724 | 0.855 | 0.764 | 0.689 | 0.548
NCI-H1666 | 0.799 | 0.714 | 0.896 | 0.811 | 0.779 | 0.796 | 0.787 | 0.751 | 0.653 | 0.704 | 0.974 | 0.916 | 1.1 | 0.849 | 1.03 | 1.03 | 1.13 | 1.01 | 0.936 | 0.949
EPLC-272H | 0.696 | 0.885 | 0.829 | 1.43 | 1.08 | 0.469 | 0.442 | 0.374 | 0.299 | 0.375 | 0.81 | 0.867 | 0.89 | 0.959 | 1.19 | 0.176 | – | 0.311 | 0.198 | 0.185
ChaGo-K-1 | – | 0.97 | 0.964 | 1.09 | 0.985 | 0.582 | 0.423 | 0.525 | 0.515 | 0.526 | – | 1.15 | 1.21 | 1.12 | 1.16 | 0.555 | 0.295 | 0.705 | 0.429 | 0.306
NCI-H1651 | 0.876 | 0.926 | 0.953 | 0.851 | 0.96 | 0.74 | 0.728 | 0.581 | 0.271 | 0.488 | 0.889 | 0.839 | 0.845 | 0.837 | 0.913 | 0.851 | 0.694 | 0.833 | 0.854 | 0.784
NCI-H2087 | 0.859 | 0.805 | 0.824 | 0.65 | 0.766 | 0.321 | 0.324 | 0.285 | 0.289 | 0.315 | 0.897 | 0.898 | 0.921 | 0.809 | 0.846 | 0.184 | 0.135 | 0.169 | 0.161 | 0.158
HCC-44 | 0.853 | 0.798 | 0.854 | 0.89 | 0.866 | 0.868 | 1.06 | 0.738 | 0.728 | 0.429 | 0.83 | 0.774 | 0.874 | 0.762 | 0.843 | 0.968 | 1.19 | 0.805 | 0.939 | 1.05
RERF-LC-KJ | 1.04 | 1.01 | 1.11 | 0.941 | 1.11 | 0.621 | 0.695 | 0.588 | 0.452 | 0.29 | 0.761 | 0.729 | 0.881 | 0.913 | 0.982 | 1.25 | 1.25 | 1.36 | 1.2 | 1.18
